How the values were obtained:
MDA-MB-231 cells [1] = test: Cellular uptake by nuclear microscopy (STIM, PIXE, EBS), Co as signature; assay type: cell-based
Experimental: MDA-MB-231 cells (10^4-10^5 cells) were seeded on 100 nm thick silicon nitride (Si3N4) membranes (Silson Ltd., UK), allowed to adhere, and incubated for 24 h in medium containing Na[o-COSAN] at 50 µM. The culture medium was removed and the monolayer of cells on the membranes was washed with cold PBS, immediately frozen at -80 °C, transferred to a cryostat at -25 °C and allowed to dry overnight for subsequent analysis of [o-COSAN]^− uptake. […] Briefly, a 2.0 MeV focused proton beam of 3 × 4 µm^2 was raster scanned across the target cell on the silicon nitride window, simultaneously delivering images of density by STIM (Scanning Transmission Ion Microscopy), elemental distributions by PIXE (Particle Induced X-ray Emission) and matrix constituents by EBS (Elastic Backscattering Spectroscopy). Spectra recorded and/or extracted from maps in selected regions of the cell allowed Co concentrations to be determined in major cell compartments, such as the cytoplasm and nucleus. At least three cells treated with Na[o-COSAN] at a concentration of 50 µM were analyzed, and Co concentrations were measured using a minimum of five spectra acquired from both the nucleus and cytoplasm regions. The average concentrations for each of these regions were calculated based on the individual spectra. Data acquisition, spectra processing and concentration calculation were performed using the OMDAQ-3 program (Oxford Microbeams Ltd., UK) (http://www.microbeams.co.uk/ Accessed 12-6-2024). Elemental concentrations are expressed as µg/g dry weight.
The uptake of [o-COSAN]^− in single MDA-MB-231 cells was analysed using a combination of nuclear microscopy techniques: STIM, PIXE, and EBS. These techniques allow correlative imaging and quantification of elemental distributions. […] These morphological details were essential for correlating with the elemental distributions obtained from PIXE and assessing localization. […] Therefore, considering the stoichiometry of the carborane cluster [C2B9H11]^−2.in the [o-COSAN]^− molecule, the boron-11 (^11B) content can be estimated. […] This is important information provided by nuclear microscopy. It will be needed for future advanced dosimetry studies, including PBFR.

MDA-MB-231 cells [2] = test: γ-H2AX foci quantification after proton irradiation; assay type: cell-based
Experimental: (§1) Proton irradiation was performed in air using the external microbeam facility at the Van de Graaff accelerator of the CTN/IST. Briefly, a focused 2.0 MeV proton beam of ∼70 × 70 µm^2 was used and rastered scanned over a cell monolayer placed in a cell plate, positioned prependicular to the proton beam path. The raster scan duration and the irradiation time of 10 s ensured irradiation homogeneity. The maximum achievable scan area is in the range of 0.08–0.13 cm^2 (corresponding to 40% of the total area of one well, 0.32 cm^2, in a 96-well plate). A proton beam current in the pA range was used, corresponding to a proton intensity of 2–6 × 10^6 protons/s. Prior to irradiation, part of the culture medium was removed, as described elsewhere. The proton beam energy was tuned to 675 keV (main resonance energy of the proton-boron nuclear reaction) within the cell layer by controlling the air path length and using Mylar^R foils as attenuators. The details of the irradiation geometry are described above and illustrated in Fig. 2.
MDA-MB-231 cells were seeded at a density of 10,000 cells per well in an eight-well chamber slide and allowed to attach overnight. Cells were incubated with 50 and 100 µM of Na[o-COSAN], for 24 h at 37 °C, and then irradiated with protons, as described in 2.4. MDA-MB-231 cells were washed three times with PBS and fixed with 4% formaldehyde in PBS for 15 min. After washing with PBS, cells were permeabilized with Triton X-100 (0.5%) at room temperature for 5 min followed by two washing steps with 1% BSA in PBS. Then, cells were incubated with an anti-γ-H2AX primary antibody (mouse anti-γ-H2AX (ser139), Stressgen) at 2 µg/mL for 1 h. […] Cells were analyzed at under ×64 magnification. Several high-quality 2D images were randomly collected in each slide and analyzed using a modified Speckle Count pipeline from the freeware CellProfiler. At least 200 nuclei were analyzed per experiment per dose. […]
The efficiency of [o-COSAN]^- was evaluated after irradiation with 8 Gy of protons in MDA-MB-231 cells. […]

[3] = system: MDA-MB-231 tumor-bearing mice; test: Biodistribution, boron by ICP-OES in MDA-MB-231 xenograft model; assay type: in vivo, mice (Balb/cSlc-nu/nu); settings: 7.5 mgB/kg intravenously
Experimental: MDA-MB-231 tumor-bearing mice (Balb/cSlc-nu/nu, female, 5–6 weeks old, 14–20 g, Sankyo Labo Service Co., Ltd., Japan) were prepared by injecting subcutaneously (s.c.) a suspension of MDA-MB-231 cells (8.0 × 10^5 cells/mouse) directly into the right thigh. The mice were kept on a regular chow diet and water and maintained under 12 h light/dark cycle in an ambient atmosphere. When the tumor diameter became 5 to 7 mm, the mice were injected via the tail vein with a 200 µL PBS solution of Na[o-COSAN] (7.5 mgB/kg). At 1 h after injection, the mice were lightly anesthetized, and blood samples were collected by cardiac puncture. The mice were then sacrificed by cervical dislocation and dissected. Heart, liver, lung, kidney, spleen, muscle, brain and tumor were excised, washed with 0.9% NaCl solution, and weighed. The excised organs were digested with 1 mL of HNO3 at 90 °C for 1 h, and then the digested samples were diluted with distilled water. After filtering through a hydrophobic filter, boron concentration was measured by an inductively coupled plasma optical emission spectroscopy (ICP-OES, iCAP 7400 Duo, Thermo Fisher Scientific Inc., USA). All animal experiments were conducted in accordance with the Guide for the Care and Use of Laboratory Animals approved by the Animal Use Review Board and Ethical Committee of Tokyo Institute of Technology (Permission number: D2021007).
The biodistribution studies provide important preclinical information regarding the identity of the potential target organs and tissues. Na[o-COSAN] (7.5 mgB/kg) was administrated intravenously to MDA-MB-231 breast cancer xenograft model mice, and boron uptake in the target organs was evaluated at 1 and 4 h post-injection.

[4] = system: MDA-MB-231 breast cancer cells; test: MTT cell viability / cytotoxic activity; assay type: cell-based; settings: MDA-MB-231, MTT, mean ± SD of two independent experiments
Experimental: MDA-MB-231 breast cancer cells were purchased from American Type Culture Collection (ATCC, HTB-26). Cells were cultured in DMEM medium supplemented with 10% fetal bovine serum (FBS) and incubated at 37 °C in a humidified 5% CO2 atmosphere. Na[o-COSAN] stock solutions at 1 mM were prepared in DMEM medium without supplements and kept at -20 °C. Cell viability was assessed using the MTT assay following a method similar to the one previously described. Briefly, MDA-MB-231 cells (0.8 − 5 × 10^4 cells/well) were seeded in 96-well plates and left to adhere. After 24 h, cells were incubated with increasing concentrations of Na[o-COSAN] from 1 µM to 1000 µM for 6 and 24 h. After incubation, the medium was removed, and each well was incubated with an MTT solution (0.5 mg/mL in medium) for 3 h at 37 °C. Then, the medium was discarded, and the formazan crystals were solubilized in 200 µL DMSO. Absorbance was measured at 570 nm using an Varioskan TM LUX microplate reader (Thermo Scientific, Waltham, MA, USA). The dose-response curve fit of the absorbance as a function of log10[concentration] was performed using GraphPad Prism software (version 9.5.1) to assess viability and IC50 (concentration at which half the cell population is expected to die) at 6 and 24 h. […]

[5] = design: method as in doi:10.1021/cr00010a005, PMID 34944987, PMID 34576098; settings: cited from earlier work
MDA-MB-231 cells [6] = test: Clonogenic cell survival after proton irradiation (PBFR, 675 keV); assay type: cell-based; settings: for surviving fraction vs control irradiated cells: 24 h incubation, 8 Gy protons, p < 0.05
Experimental: as §1
MDA-MB-231 cells were seeded in each well of a 6 well plate and incubated for 24 h. Cells were incubated with 50 and 100 µM of Na[o-COSAN], for 24 h at 37 °C, and then irradiated with protons, as described in 2.3.1. After irradiation, fresh medium was added and cells were incubated for 7 days in the same conditions. After 7 days of incubation, the medium was aspirated and cells were fixed and stained with Giemsa’s azur eosin methylene blue solution diluted 5% v/v in buffer solution. Finally, colonies were manually counted. Moreover, a CellProfiler pipeline was used to check the size of the different colonies observed in order to assess whether proton irradiation interfered with the capacity of replication of MDA-MB-231 cells.
The efficiency of [o-COSAN]^- was evaluated after irradiation with 8 Gy of protons in MDA-MB-231 cells. The irradiation with protons was carried out assuming that the proton-boron nuclear reaction resonance energy of 675 keV was reached within the cell monolayer.

U87 glioblastoma cells = system: U87 glioblastoma cells; design: method as in PMID 36373493; settings: protons at 675 keV, dose 9 Gy; cited from earlier work

**Q.** With “sodium salt of cobaltabisdicarbollide [Na[o-COSAN]]” as the substance, how does the “Co concentration, nucleus compared to cytoplasm” value (MDA-MB-231 cells [1]; 24 h, 50 µM, Fig. 3C) read?
**A.** The value was “significantly higher concentrations of Co in the nucleus compared to the cytoplasm”.

**Q.** And the “11B content in the nucleus” value (MDA-MB-231 cells [1]; estimated from Co concentration and cluster stoichiometry, 24 h, 50 µM)?
**A.** Its value is 425 µg/g.

**Q.** What about the “11B atoms in the nuclear volume of a single cell” value (MDA-MB-231 cells [1]; estimated from Co concentration, 24 h, 50 µM) of the same substance?
**A.** Its value is “approximately 2.3 × 10^9 atoms”.

**Q.** What about the “average Co concentration in the nucleus” value (MDA-MB-231 cells [1]; single MDA-MB-231 cells, 24 h incubation with 50 µM, PIXE, dry weight) of the same substance?
**A.** Its value is 153 µg/g.

**Q.** What about the “increase in average number of γ-H2AX foci” value (MDA-MB-231 cells [2]; irradiated cells (8 Gy protons) incubated with 50 µM) of the same substance?
**A.** Its value is 55%.

**Q.** What about the “increase in average number of γ-H2AX foci” value (MDA-MB-231 cells [2]; irradiated cells (8 Gy protons) incubated with 100 µM) of the same substance?
**A.** The value was 27%.

**Q.** What about the “γ-H2AX foci induction without irradiation” value (MDA-MB-231 cells [2]; non-irradiated cells) of the same substance?
**A.** The value was “does not induce new γ-H2AX foci”.

**Q.** And the tumor boron uptake ([3]; 1 and 4 h post-injection)?
**A.** Its tumor boron uptake is “high and maintained after 4 h”.

**Q.** And the “boron accumulation in liver and lungs” value ([3]; 1 h post-injection)?
**A.** Its value is “significant accumulation of boron”.

**Q.** What about the “boron accumulation in kidney and spleen” value ([3]; 1 h post-injection, relative to liver and lungs) of the same substance?
**A.** Its value is “less”.

**Q.** What about the “boron in target organs after 4 h” value ([3]; 4 h post-injection) of the same substance?
**A.** The value was “considerable clearance of boron”.

**Q.** What about the IC50 ([4]; 6 h incubation) of the same substance?
**A.** Its IC50 is 245 ± 94 µM.

**Q.** What about the IC50 ([4]; 24 h incubation) of the same substance?
**A.** The IC50 was 137 µM.

**Q.** And the stability [5]?
**A.** Its stability is “remarkably stable”.

**Q.** And the water solubility [5]?
**A.** The water solubility was “water-soluble”.

**Q.** What about the “surviving fraction vs control irradiated cells” value (MDA-MB-231 cells [6]; 50 µM) of the same substance?
**A.** The value was “significant decrease”.

**Q.** What about the “surviving fraction vs control irradiated cells” value (MDA-MB-231 cells [6]; 100 µM) of the same substance?
**A.** The value was “significant decrease”.

**Q.** And the “decrease of average colony size vs cells irradiated with protons in the absence of compound” value (MDA-MB-231 cells [6]; 100 µM, irradiated 8 Gy protons, p < 0.001)?
**A.** The value was 40%.

**Q.** What about the “decrease of average colony size vs non-irradiated counterparts” value (MDA-MB-231 cells [6]; 100 µM, irradiated 8 Gy protons, p < 0.01) of the same substance?
**A.** Its value is 30%.

**Q.** And the “effect on surviving fraction of treated non-irradiated cells” value (MDA-MB-231 cells [6]; non-irradiated, vs control conditions)?
**A.** The value was “minor cytostatic effects”.

**Q.** Which “cell viability and survival after proton irradiation” value (U87 glioblastoma cells) does the source give for ferrabis(dicarbollide) [Na[o-FESAN]] here?
**A.** The value was “significant loss of cell viability and survival”.
